SMILES strings stand for the structures. Values after ≈ are worked out from the molar mass of the structure shown.

For experiment [1], the system named is Streptococcus pneumoniae 1/1. Put plainly: MIC against Streptococcus pneumoniae 1/1. Type of experiment: cell-based. Particulars: Table 2; Streptococcus pneumoniae 1/1, trimethoprim- and penicillin-resistant, serotype 6; clinical isolate; read-out: MIC Sp1/1.
Experiment [2] relates to Staphylococcus aureus 101. Put plainly: MIC against Staphylococcus aureus 101. The format is cell-based. Particulars: Table 2; Staphylococcus aureus 101, MRSA- and trimethoprim-resistant; clinical isolate; read-out: MIC Sa101.
Experiment [3] concerns the target T1, purified DHFR of strain Sp1/1 of Streptococcus pneumoniae (Streptococcus pneumoniae serotype 4, UniProt Q54801).
T1 sequence (Q54801 1-168 I100L): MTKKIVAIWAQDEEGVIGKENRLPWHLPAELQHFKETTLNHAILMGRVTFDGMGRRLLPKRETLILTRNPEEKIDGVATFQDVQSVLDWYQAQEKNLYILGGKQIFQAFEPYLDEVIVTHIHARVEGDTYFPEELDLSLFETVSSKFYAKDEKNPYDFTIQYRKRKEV
Type of experiment: biochemical. Particulars: Table 2; IC50 against purified DHFR of strain Sp1/1.

In experiment [4] the target is purified DHFR of strain 157/4696 of Staphylococcus aureus (Staphylococcus aureus, UniProt P13955). Put plainly: biochemical.
Sequence of purified DHFR of strain 157/4696 of Staphylococcus aureus (P13955 whole entry): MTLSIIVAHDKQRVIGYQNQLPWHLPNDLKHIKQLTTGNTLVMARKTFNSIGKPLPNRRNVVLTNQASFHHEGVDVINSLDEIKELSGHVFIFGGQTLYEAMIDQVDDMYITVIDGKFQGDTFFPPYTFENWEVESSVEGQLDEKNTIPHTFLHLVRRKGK

The IC50 is the concentration at which inhibition is half-maximal. `CCCOc1cc(Cc2cnc(N)nc2N)cc(OCCC)c1-c1cccc(O)c1` [Example 52-, 4′-(2,4-Diamino-pyrimidin-5-ylmethyl)-2′,6′-digropobiphenyl-3-ol]: the MIC in experiment [1] was determined as 1 µg/mL (≈ 2.45 µM); in experiment [2], 8 µg/mL (≈ 19.6 µM). The IC50 in experiment [3] came to 20 nM; in experiment [4], 5800 nM.

Regarding `CCCOc1cc(Cc2cnc(N)nc2N)cc(OCC)c1-c1cccc(O)c1` [Example 53-, 4′-(2,4-Diamino-pyrimidin-5-ylmethyl)-6′-ethoxy-2′-n-propoxy-biphenyl-3-ol], the values for the MIC in experiment [1] and in experiment [2] were 4 µg/mL (≈ 10.1 µM) and 8 µg/mL (≈ 20.3 µM), respectively. The IC50 in experiment [3] amounted to 28 nM; in experiment [4] it was 1800 nM.

Turning to `CCOc1cc(Cc2cnc(N)nc2N)cc(OCC2CC2)c1-c1cccc(O)c1` [Example 54-, 2′-Cyclopropanomethoxy-4′-(2,4-diamino-pyrimidin-5-ylmethyl)-6′-ethoxy-biphenyl-3-ol], the MIC in experiment [1] was 2 µg/mL (≈ 4.92 µM); in experiment [2], 8 µg/mL (≈ 19.7 µM). Also, the IC50 came to 19 nM in experiment [3] and 3100 nM in experiment [4].

As for `CCOc1cc(Cc2cnc(N)nc2N)cc(OCC2CC2)c1-c1ccc(OCCO)cc1` [Example 55-, 2-[2′-Cyclopropylmethoxy-4′-(2,4-diamino-pyrimidin-5-ylmethyl)-6′-ethoxy-biphenyl-4-yloxy]-ethanol], the MIC in experiment [1] came out at 4 µg/mL (≈ 8.88 µM); in experiment [2] it was 8 µg/mL (≈ 17.8 µM). Further, the IC50 in experiment [3] was 48 nM; in experiment [4], 1700 nM.

Consider `CCOc1cc(Cc2cnc(N)nc2N)cc(OCC2CC2)c1-c1ccc(OS(C)(=O)=O)cc1` [Example 57-, Methanesulphonic acid 2′-cylopropylmethoxy-4′-(2,4-diamino-pyrimidin-5-ylmethyl)-6′-ethoxy-biphenyl-4-yl ester], for which the MIC was 4 µg/mL (≈ 8.25 µM) in experiment [1] and 8 µg/mL (≈ 16.5 µM) in experiment [2]. The IC50 came out at 30 nM in experiment [3] and 3600 nM in experiment [4].

Regarding `CCOc1cc(Cc2cnc(N)nc2N)cc(OS(=O)(=O)C(C)C)c1-c1ccc(OC(C)=O)cc1` [Example 58-, 4′-(2,4-Diamino-pyrimidin-5-ylmethyl)-6′-ethoxy-2′-(propane-2-sulphonyloxy)-biphenyl-4-yl acetate], the MIC in experiment [1] and in experiment [2] was 2 µg/mL in each case. Besides, the IC50 in experiment [3] was determined as 32 nM; in experiment [4] it was 55 nM.

In the case of `CCOc1cc(Cc2cnc(N)nc2N)cc(OCC2CC2)c1-c1ccc(OCC#N)cc1` [Example 59-, [2′-Cycloproplmethoxy-4′-(2,4-diamino-pyrimidin-5-ylmethyl)-6′-ethoxy-biphenyl-4-yloxy]-acetonitrile], the MIC was 2 µg/mL (≈ 4.49 µM) in experiment [1] and 8 µg/mL (≈ 18 µM) in experiment [2]. Besides, the IC50 in experiment [3] came to 18 nM; in experiment [4], 1800 nM.

Regarding `CCOc1cc(Cc2cnc(N)nc2N)cc(OS(=O)(=O)N(C)C)c1-c1ccc(S(C)(=O)=O)cc1` [Example 60-, Dimethylsulphamic acid 4-(2,4-diamino-pyrimidin-5-ylmethyl)-6-ethoxy-4′-methanesulphonyl-biphenyl-2-yl ester], the MIC was found to be 8 µg/mL (≈ 15.3 µM) in experiment [1] and 4 µg/mL (≈ 7.67 µM) in experiment [2]. Further, the IC50 in experiment [3] was 88 nM; in experiment [4], 280 nM.

Take `CCOc1cc(Cc2cnc(N)nc2N)cc(OS(=O)(=O)CC(C)C)c1-c1ccc(OCCO)cc1` [Example 61-a, 2-Methyl-propane-1-sulphonic acid 4-(2,4-diamino-pyrimidin-5-ylmethyl)-6-ethoxy-4′-(2-hydroxy-ethoxy)-biphenyl-2-yl ester]: the MIC in experiment [1] worked out at 0.5 µg/mL (≈ 0.968 µM); in experiment [2] it was 2 µg/mL (≈ 3.87 µM). The IC50 in experiment [3] was 1.8 nM; in experiment [4], 550 nM.

As to `CCOc1cc(Cc2cnc(N)nc2N)cc(OS(=O)(=O)C(C)CC)c1-c1ccc(OCCO)cc1` (stereo not shown) [Example 61-b], the MIC in experiment [1] was found to be 1 µg/mL (≈ 1.94 µM); in experiment [2] it was 2 µg/mL (≈ 3.87 µM). For the same compound, the IC50 was determined as 11 nM in experiment [3] and 210 nM in experiment [4].

For the compound `CCOc1cc(Cc2cnc(N)nc2N)cc(OS(=O)(=O)N(C)C)c1-c1ccc(OC(C)=O)cc1` [Example 62-, 4′-(2,4-Diamino-pyrimidin-5-ylmethyl)-2′-dimethylsulphamoylxy-6′-ethoxy-biphenyl-4-yl acetate], the MIC in experiment [1] and in experiment [2] was 2 µg/mL in each case. Further, the IC50 in experiment [3] turned out to be 7.9 nM; in experiment [4], 330 nM.

Turning to `CCOc1cc(Cc2cnc(N)nc2N)cc(OS(=O)(=O)CC(C)C)c1-c1ccc(OCCOC)cc1` [Example 63-, 2-Methyl-propane-1-sulphonic acid 4-(2,4-diamino-pyrimidin-5-ylmethyA)-6-ethoxy-4′-(2-methox-ethoxy)-biphenyl-2-yl ester], the MIC is 1 µg/mL (≈ 1.88 µM) in experiment [1] and 4 µg/mL (≈ 7.54 µM) in experiment [2]. Besides, the half-inhibitory concentration (IC50) in experiment [3] is 1.8 nM; in experiment [4], 380 nM.

On to `CCOc1cc(Cc2cnc(N)nc2N)cc(OS(C)(=O)=O)c1-c1ccc(CN2CCOCC2)c(F)c1` [Example 64-a, Methanesulphonic acid 4-(2,4-diamino-pyrimidin-5-ylmethyl)-6-ethoxy-3′-fluoro-4′-morpholin-4-ylmethyl-biphenyl-2-yl ester], for which the MIC in experiment [1] is 4 µg/mL (≈ 7.52 µM); in experiment [2], 8 µg/mL (≈ 15 µM). Also, the half-inhibitory concentration (IC50) was found to be 52 nM in experiment [3] and 1500 nM in experiment [4].

Take `CCOc1cc(Cc2cnc(N)nc2N)cc(OS(=O)(=O)N(C)C)c1-c1ccc(CN2CCOCC2)c(F)c1` [Example 64-b, Dimethylsulphamic acid 4-(2,4-diamino-pyrimidin-5-ylmethUl)-6-ethoxy-3′-fluoro-4′-morpholin-4-ylmethyl-biphenyl-2-yl ester]: the MIC in experiment [1] and in experiment [2] was 2 µg/mL (≈ 3.57 µM) throughout. Also, the IC50 in experiment [3] amounted to 27 nM; in experiment [4], 300 nM.

Consider `CCOc1cc(Cc2cnc(N)nc2N)cc(OS(=O)(=O)N(C)C)c1-c1ccc(CN2CCOCC2)cc1` [Example 65-, Dimethylsulphamic acid 4-(2,4-diamino-pyrimidin-5-ylmethyl)-6-ethoxy-4′-morpholin-4-ylmethyl-biphenyl-2-yl ester], for which the MIC in experiment [1] and in experiment [2] was 2 µg/mL (≈ 3.69 µM) each time. The IC50 in experiment [3] came to 24 nM; in experiment [4], 160 nM.

For the compound `CCOc1cc(Cc2cnc(N)nc2N)cc(OS(=O)(=O)N(C)C)c1-c1ccc(CN(C)CCF)cc1` [Example 66-, Dimethylsulphamic acid 4-(2,4-diamino-pyrimidin-5-ylmethyl)-6-ethoxy-4′-{[N-(2-fluoro-ethyl)-N-methyl-amino]-methyl}-binhenyl-2-yl ester], the MIC in experiment [1] worked out at 4 µg/mL (≈ 7.51 µM); in experiment [2], 2 µg/mL (≈ 3.75 µM). Also, the IC50 in experiment [3] came to 52 nM; in experiment [4], 170 nM.

The values above are taken from US6821980B1, “Substituted 5-benzyl-2,4-diaminopyrimidines” (Basilea Pharmaceutica AG, priority 1999, dated 2004).
